Data reported in PubChem BioAssay AID1963825 (Molecular Pharmacology Branch, DTP, NCI, 2024).

experiment: Anticancer human tumor 997537-175-T-J1-PDC patient-derived colon adenocarcinoma cell line growth inhibition [POLQ]; settings: 997537-175-T-J1-PDC complex spheroid viability, combination with POLQ inhibitors; second compound 3.16 µM; first compound 0.1 µM; hits give low values
Outline: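 PDC + HUVEC + MSC complex spheroids; POLQ inhibitors ± partner drugs; top conc. at/near clinical Cmax, else 10 microM (SN-38 1 microM), half-log dilutions; 37 degrees C, 5% CO2.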
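Note: luminescence signal used as a surrogate for viable cells; spheroids exposed to drugs for seven days before readout.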

Compound	viability, T/C
CCc1c2c(nc3ccc(O)cc13)-c1cc3c(c(=O)n1C2)COC(=O)[C@]3(O)CC + COC1C(OC(N)=O)C(O)C(Oc2ccc3c(O)c(NC(=O)c4ccc(O)c(CC=C(C)C)c4)c(=O)oc3c2C)OC1(C)C	11.4%
CC1COCCN1c1cc(C2(S(C)(=N)=O)CC2)nc(-c2ccnc3[nH]ccc23)n1 (configuration not stated) + Cc1cccc(N(C)C(=O)C2C(O)CCN2c2nc(C)cc(C(F)(F)F)c2C#N)c1	109%
CNCc1ccc(-c2[nH]c3cc(F)cc4c3c2CCNC4=O)cc1 + Nc1ccc(C#CCN(C(=O)Cc2ncc(C(F)(F)F)cc2C(F)(F)F)c2ccc(F)cc2)nn1	95.6%
O=C(c1cc(Cc2n[nH]c(=O)c3ccccc23)ccc1F)N1CCN(C(=O)C2CC2)CC1 + Cc1cccc(N(C)C(=O)C2C(O)CCN2c2nc(C)cc(C(F)(F)F)c2C#N)c1	108%

same assay, conditions: 997537-175-T-J1-PDC complex spheroid viability, combination with POLQ inhibitors; second compound 3.16 µM; first compound 0.316 µM; hits give low values

Compound	viability, T/C
CCc1c2c(nc3ccc(O)cc13)-c1cc3c(c(=O)n1C2)COC(=O)[C@]3(O)CC + COC1C(OC(N)=O)C(O)C(Oc2ccc3c(O)c(NC(=O)c4ccc(O)c(CC=C(C)C)c4)c(=O)oc3c2C)OC1(C)C	7.04%
CC1COCCN1c1cc(C2(S(C)(=N)=O)CC2)nc(-c2ccnc3[nH]ccc23)n1 (configuration not stated) + Cc1cccc(N(C)C(=O)C2C(O)CCN2c2nc(C)cc(C(F)(F)F)c2C#N)c1	98.5%
CNCc1ccc(-c2[nH]c3cc(F)cc4c3c2CCNC4=O)cc1 + Nc1ccc(C#CCN(C(=O)Cc2ncc(C(F)(F)F)cc2C(F)(F)F)c2ccc(F)cc2)nn1	85.1%
O=C(c1cc(Cc2n[nH]c(=O)c3ccccc23)ccc1F)N1CCN(C(=O)C2CC2)CC1 + Cc1cccc(N(C)C(=O)C2C(O)CCN2c2nc(C)cc(C(F)(F)F)c2C#N)c1	92.2%

same assay, conditions: 997537-175-T-J1-PDC complex spheroid viability, combination with POLQ inhibitors; second compound 3.16 µM; first compound 1 µM; hits give low values

Compound	viability, T/C
CCc1c2c(nc3ccc(O)cc13)-c1cc3c(c(=O)n1C2)COC(=O)[C@]3(O)CC + COC1C(OC(N)=O)C(O)C(Oc2ccc3c(O)c(NC(=O)c4ccc(O)c(CC=C(C)C)c4)c(=O)oc3c2C)OC1(C)C	7.5%
CC1COCCN1c1cc(C2(S(C)(=N)=O)CC2)nc(-c2ccnc3[nH]ccc23)n1 (configuration not stated) + Cc1cccc(N(C)C(=O)C2C(O)CCN2c2nc(C)cc(C(F)(F)F)c2C#N)c1	87.3%
CNCc1ccc(-c2[nH]c3cc(F)cc4c3c2CCNC4=O)cc1 + Nc1ccc(C#CCN(C(=O)Cc2ncc(C(F)(F)F)cc2C(F)(F)F)c2ccc(F)cc2)nn1	99.1%
O=C(c1cc(Cc2n[nH]c(=O)c3ccccc23)ccc1F)N1CCN(C(=O)C2CC2)CC1 + Cc1cccc(N(C)C(=O)C2C(O)CCN2c2nc(C)cc(C(F)(F)F)c2C#N)c1	92.1%

same assay, conditions: 997537-175-T-J1-PDC complex spheroid viability, combination with POLQ inhibitors; second compound 3.16 µM; first compound 3.16 µM; hits give low values

Compound	viability, T/C
CC1COCCN1c1cc(C2(S(C)(=N)=O)CC2)nc(-c2ccnc3[nH]ccc23)n1 (configuration not stated) + Cc1cccc(N(C)C(=O)C2C(O)CCN2c2nc(C)cc(C(F)(F)F)c2C#N)c1	78.3%
CNCc1ccc(-c2[nH]c3cc(F)cc4c3c2CCNC4=O)cc1 + Nc1ccc(C#CCN(C(=O)Cc2ncc(C(F)(F)F)cc2C(F)(F)F)c2ccc(F)cc2)nn1	96.2%
O=C(c1cc(Cc2n[nH]c(=O)c3ccccc23)ccc1F)N1CCN(C(=O)C2CC2)CC1 + Cc1cccc(N(C)C(=O)C2C(O)CCN2c2nc(C)cc(C(F)(F)F)c2C#N)c1	97.5%

same assay, conditions: 997537-175-T-J1-PDC complex spheroid viability, combination with POLQ inhibitors; second compound 3.16 µM; first compound 10 µM; hits give low values

Compound	viability, T/C
CC1COCCN1c1cc(C2(S(C)(=N)=O)CC2)nc(-c2ccnc3[nH]ccc23)n1 (configuration not stated) + Cc1cccc(N(C)C(=O)C2C(O)CCN2c2nc(C)cc(C(F)(F)F)c2C#N)c1	70.8%
CNCc1ccc(-c2[nH]c3cc(F)cc4c3c2CCNC4=O)cc1 + Nc1ccc(C#CCN(C(=O)Cc2ncc(C(F)(F)F)cc2C(F)(F)F)c2ccc(F)cc2)nn1	111%
O=C(c1cc(Cc2n[nH]c(=O)c3ccccc23)ccc1F)N1CCN(C(=O)C2CC2)CC1 + Cc1cccc(N(C)C(=O)C2C(O)CCN2c2nc(C)cc(C(F)(F)F)c2C#N)c1	103%

same assay, conditions: 997537-175-T-J1-PDC complex spheroid viability, combination with POLQ inhibitors; second compound 10 µM; first compound 0.00316 µM; hits give low values

Compound	viability, T/C
CCc1c2c(nc3ccc(O)cc13)-c1cc3c(c(=O)n1C2)COC(=O)[C@]3(O)CC + COC1C(OC(N)=O)C(O)C(Oc2ccc3c(O)c(NC(=O)c4ccc(O)c(CC=C(C)C)c4)c(=O)oc3c2C)OC1(C)C	63.9%

same assay, conditions: 997537-175-T-J1-PDC complex spheroid viability, combination with POLQ inhibitors; second compound 10 µM; first compound 0.01 µM; hits give low values

Compound	viability, T/C
CCc1c2c(nc3ccc(O)cc13)-c1cc3c(c(=O)n1C2)COC(=O)[C@]3(O)CC + COC1C(OC(N)=O)C(O)C(Oc2ccc3c(O)c(NC(=O)c4ccc(O)c(CC=C(C)C)c4)c(=O)oc3c2C)OC1(C)C	57.9%

same assay, conditions: 997537-175-T-J1-PDC complex spheroid viability, combination with POLQ inhibitors; second compound 10 µM; first compound 0.0316 µM; hits give low values

Compound	viability, T/C
CCc1c2c(nc3ccc(O)cc13)-c1cc3c(c(=O)n1C2)COC(=O)[C@]3(O)CC + COC1C(OC(N)=O)C(O)C(Oc2ccc3c(O)c(NC(=O)c4ccc(O)c(CC=C(C)C)c4)c(=O)oc3c2C)OC1(C)C	26.3%
CC1COCCN1c1cc(C2(S(C)(=N)=O)CC2)nc(-c2ccnc3[nH]ccc23)n1 (configuration not stated) + Cc1cccc(N(C)C(=O)C2C(O)CCN2c2nc(C)cc(C(F)(F)F)c2C#N)c1	88.3%
CNCc1ccc(-c2[nH]c3cc(F)cc4c3c2CCNC4=O)cc1 + Nc1ccc(C#CCN(C(=O)Cc2ncc(C(F)(F)F)cc2C(F)(F)F)c2ccc(F)cc2)nn1	87.4%
O=C(c1cc(Cc2n[nH]c(=O)c3ccccc23)ccc1F)N1CCN(C(=O)C2CC2)CC1 + Cc1cccc(N(C)C(=O)C2C(O)CCN2c2nc(C)cc(C(F)(F)F)c2C#N)c1	99.3%

same assay, conditions: 997537-175-T-J1-PDC complex spheroid viability, combination with POLQ inhibitors; second compound 10 µM; first compound 0.1 µM; hits give low values

Compound	viability, T/C
CCc1c2c(nc3ccc(O)cc13)-c1cc3c(c(=O)n1C2)COC(=O)[C@]3(O)CC + COC1C(OC(N)=O)C(O)C(Oc2ccc3c(O)c(NC(=O)c4ccc(O)c(CC=C(C)C)c4)c(=O)oc3c2C)OC1(C)C	15%
CC1COCCN1c1cc(C2(S(C)(=N)=O)CC2)nc(-c2ccnc3[nH]ccc23)n1 (configuration not stated) + Cc1cccc(N(C)C(=O)C2C(O)CCN2c2nc(C)cc(C(F)(F)F)c2C#N)c1	99.8%
CNCc1ccc(-c2[nH]c3cc(F)cc4c3c2CCNC4=O)cc1 + Nc1ccc(C#CCN(C(=O)Cc2ncc(C(F)(F)F)cc2C(F)(F)F)c2ccc(F)cc2)nn1	104%
O=C(c1cc(Cc2n[nH]c(=O)c3ccccc23)ccc1F)N1CCN(C(=O)C2CC2)CC1 + Cc1cccc(N(C)C(=O)C2C(O)CCN2c2nc(C)cc(C(F)(F)F)c2C#N)c1	87.3%

same assay, conditions: 997537-175-T-J1-PDC complex spheroid viability, combination with POLQ inhibitors; second compound 10 µM; first compound 0.316 µM; hits give low values

Compound	viability, T/C
CCc1c2c(nc3ccc(O)cc13)-c1cc3c(c(=O)n1C2)COC(=O)[C@]3(O)CC + COC1C(OC(N)=O)C(O)C(Oc2ccc3c(O)c(NC(=O)c4ccc(O)c(CC=C(C)C)c4)c(=O)oc3c2C)OC1(C)C	6.46%
CC1COCCN1c1cc(C2(S(C)(=N)=O)CC2)nc(-c2ccnc3[nH]ccc23)n1 (configuration not stated) + Cc1cccc(N(C)C(=O)C2C(O)CCN2c2nc(C)cc(C(F)(F)F)c2C#N)c1	86%
CNCc1ccc(-c2[nH]c3cc(F)cc4c3c2CCNC4=O)cc1 + Nc1ccc(C#CCN(C(=O)Cc2ncc(C(F)(F)F)cc2C(F)(F)F)c2ccc(F)cc2)nn1	101%
O=C(c1cc(Cc2n[nH]c(=O)c3ccccc23)ccc1F)N1CCN(C(=O)C2CC2)CC1 + Cc1cccc(N(C)C(=O)C2C(O)CCN2c2nc(C)cc(C(F)(F)F)c2C#N)c1	91.1%

same assay, conditions: 997537-175-T-J1-PDC complex spheroid viability, combination with POLQ inhibitors; second compound 10 µM; first compound 1 µM; hits give low values

Compound	viability, T/C
CCc1c2c(nc3ccc(O)cc13)-c1cc3c(c(=O)n1C2)COC(=O)[C@]3(O)CC + COC1C(OC(N)=O)C(O)C(Oc2ccc3c(O)c(NC(=O)c4ccc(O)c(CC=C(C)C)c4)c(=O)oc3c2C)OC1(C)C	9.61%
CC1COCCN1c1cc(C2(S(C)(=N)=O)CC2)nc(-c2ccnc3[nH]ccc23)n1 (configuration not stated) + Cc1cccc(N(C)C(=O)C2C(O)CCN2c2nc(C)cc(C(F)(F)F)c2C#N)c1	92.7%
CNCc1ccc(-c2[nH]c3cc(F)cc4c3c2CCNC4=O)cc1 + Nc1ccc(C#CCN(C(=O)Cc2ncc(C(F)(F)F)cc2C(F)(F)F)c2ccc(F)cc2)nn1	96.8%
O=C(c1cc(Cc2n[nH]c(=O)c3ccccc23)ccc1F)N1CCN(C(=O)C2CC2)CC1 + Cc1cccc(N(C)C(=O)C2C(O)CCN2c2nc(C)cc(C(F)(F)F)c2C#N)c1	97%

same assay, conditions: 997537-175-T-J1-PDC complex spheroid viability, combination with POLQ inhibitors; second compound 10 µM; first compound 3.16 µM; hits give low values

Compound	viability, T/C
CC1COCCN1c1cc(C2(S(C)(=N)=O)CC2)nc(-c2ccnc3[nH]ccc23)n1 (configuration not stated) + Cc1cccc(N(C)C(=O)C2C(O)CCN2c2nc(C)cc(C(F)(F)F)c2C#N)c1	68.5%
CNCc1ccc(-c2[nH]c3cc(F)cc4c3c2CCNC4=O)cc1 + Nc1ccc(C#CCN(C(=O)Cc2ncc(C(F)(F)F)cc2C(F)(F)F)c2ccc(F)cc2)nn1	110%
O=C(c1cc(Cc2n[nH]c(=O)c3ccccc23)ccc1F)N1CCN(C(=O)C2CC2)CC1 + Cc1cccc(N(C)C(=O)C2C(O)CCN2c2nc(C)cc(C(F)(F)F)c2C#N)c1	87.1%

same assay, conditions: 997537-175-T-J1-PDC complex spheroid viability, combination with POLQ inhibitors; second compound 10 µM; first compound 10 µM; hits give low values

Compound	viability, T/C
CC1COCCN1c1cc(C2(S(C)(=N)=O)CC2)nc(-c2ccnc3[nH]ccc23)n1 (configuration not stated) + Cc1cccc(N(C)C(=O)C2C(O)CCN2c2nc(C)cc(C(F)(F)F)c2C#N)c1	63.5%
CNCc1ccc(-c2[nH]c3cc(F)cc4c3c2CCNC4=O)cc1 + Nc1ccc(C#CCN(C(=O)Cc2ncc(C(F)(F)F)cc2C(F)(F)F)c2ccc(F)cc2)nn1	114%
O=C(c1cc(Cc2n[nH]c(=O)c3ccccc23)ccc1F)N1CCN(C(=O)C2CC2)CC1 + Cc1cccc(N(C)C(=O)C2C(O)CCN2c2nc(C)cc(C(F)(F)F)c2C#N)c1	96.4%
